From patent US4088772A, “Methanodibenzocycloheptapyrroles” (E. I. Du Pont de Nemours and Company, priority 1975, dated 1978)
Like-named read-outs stand apart in the source and are kept apart here.

Columns and labels:
female white mice = experiment: in vivo; conditions: oral; for LD50 / Catatonia ED50 / Exploratory Loss Visual ED50 / Muscle Tone ED50 / Ptosis ED50 / Reflexes Grip ED50 / Reflexes Lift ED50 / Reflexes Pinna ED50 / Tremors ED50: Table 1; for LD50: 24-hour value; for Catatonia ED50 / Exploratory Loss Visual ED50 / Muscle Tone ED50 / Ptosis ED50 / Reflexes Grip ED50 / Reflexes Lift ED50 / Reflexes Pinna ED50 / Tremors ED50 / ED50: mice; for ED50: Mus musculus, po
Method: (§1) Groups of five Carworth CF1 S female mice, 16-20 g each, were fasted 16-22 hours before use. The mice were put in opaque plastic "shoe-box" cages 15-30 min. before injection, and then treated orally with 4, 12, 36, 108 and 324 mg/kg of the compound to be tested as a 13 mg/ml solution in 1% aqueous distilled water solution of methylcellulose (Methocel®). Each dose was given in a standard volume of 0.45 ml. Observations were made at 0.5, 2 and 24 hours after dosing. ED50 values were calculated for each parameter including death (LD50). The ED50 and LD50 values are the doses at which 50% of the naimals would be expected to respond.
(§2) The mouse is placed on a stainless steel wire mesh screen (8 × 12 inches, 3 mesh per inch, 1/4 inch mesh openings) "shoe-box" lid (1 inch high) and is observed for normal activities, such as nose movements, head movements with apparent visual examination of the area, and/or walking around on the screen. Absence of or marked depression of these activities for 5 seconds constitutes loss of exploratory activity.
(§3) The mouse is picked up by the tail and placed on the screen with its head facing the observer. Bilateral eyelid closure of 50% or more two seconds after placement is considered ptosis.
(§4) The mouse is placed with its front paws on the edge of a stainless steel "shoe-box" cover, 1 inch high, covered with adhesive tape. Failure to remove both paws from the cover's edge within 5 seconds constitutes catatonia.
(§5) The observer gently strokes the abdominal musculature of the mouse with thumb and forefinger. Flaccidity (or rarely, tenseness) is recorded.
(§6) The mouse is gently swung by the tail toward a horizontal 12 gauge wire tautly stretched 25 cm above the bench. After the mouse grasps the wire with its forepaws, its posterior end is held directly below the wire. A normal mouse grasps the wire with its forepaws and immediately lifts its hind limbs to the wire. Failure to grasp the wire with the forepaws in both trials constitutes loss of the grip reflex; failure to lift the hind limbs to grasp the wire with at least one hind paw within 5 seconds constitutes loss of the lift reflex.
(§7) The mouse is placed on the bar 10-20 cm horizontally and 9 cm vertically from a Galton whistle adjusted for 13 kc (5 mm on the whistle scale) and is subjected to several short bursts of sound.
(§8) An effective tranquilizer should induce little or no tremor response. […] Tremors include fine or coarse and intermittent or continuous tremors.

[1] = test system: phenylquinone-induced writhing; experiment: Phenylquinone writhing test (analgesia); type: in vivo, mouse (Carworth CF1 S female); conditions: Mus musculus, po, Table 1, mice
Excerpt: This mouse test is predictive of analgesic response in humans. [E. Siegmund, R. Cadmus and G. Lee, Proc. Soc.
ED50 values were obtained graphically from the data.

in vivo = conditions: mouse, in vivo, po
Method: as §1, §2, §3, §4, §5, §6, §7, §8

[2] = read-out: Catatonia ED50, Table 1
[3] = read-out: Exploratory Loss Visual ED50, Table 1
[4] = read-out: Muscle Tone ED50, Table 1
[5] = read-out: Reflexes Grip ED50, Table 1
[6] = read-out: Reflexes Lift ED50, Table 1
[7] = read-out: Reflexes Pinna ED50, Table 1

Compound | LD50 (female white mice) [mg/kg] | Catatonia ED50 (female white mice) [mg/kg] | Exploratory Loss Visual ED50 (female white mice) [mg/kg] | Muscle Tone ED50 (female white mice) [mg/kg] | Ptosis ED50 (female white mice) [mg/kg] | Reflexes Grip ED50 (female white mice) [mg/kg] | Reflexes Lift ED50 (female white mice) [mg/kg] | Reflexes Pinna ED50 (female white mice) [mg/kg] | Tremors ED50 (female white mice) [mg/kg] | ED50 [1] [mg/kg] | LD50 at 24 h (in vivo) [mg/kg] | ED50 (female white mice; [2]) [mg/kg] | ED50 (female white mice; [3]) [mg/kg] | ED50 (female white mice; [4]) [mg/kg] | ED50 (female white mice; read-out: Ptosis ED50, Table 1) [mg/kg] | ED50 (female white mice; [5]) [mg/kg] | ED50 (female white mice; [6]) [mg/kg] | ED50 (female white mice; [7]) [mg/kg] | ED50 (in vivo) [mg/kg]
5- and 11-Chloro-2-cyclohexylmethyl-2,3,8,12b-tetrahydro-1H-3a,8-methanodibenzo[3,4:6,7]cyclohepta[1,2-c]pyrrole [Example 44] | > 324 | 19 | 17 | 12 | < 3 | > 324 | 36 | 11 | > 324 |  |  |  |  |  |  |  |  |  | 
5- and 11-Chloro-2-methyl-2,3,8,12b-tetrahydro-1H- 3a,8-methanodibenzo[3,4:6,7]cyclohepta[1,2-c]pyrrole [Example 43] | 200 | 100 | 7 | 20 | 20 | 60 | 20 | 20 | 36 |  |  |  |  |  |  |  |  |  | 
c1ccc2c(c1)[C@@H]1C[C@@]3(CN(CC4CCCC4)C[C@H]23)c2ccccc21 (relative stereo) [Cyclopentylmethyl (free base), 2-Cyclopentylmethyl-2,3,8,12b-tetrahydro-1H-3a,8-methanodibenzo[3,4:6,7]cyclohepta[1,2-c]pyrrole] |  |  |  |  |  |  |  |  |  | < 130 | > 324 | 7 | < 3 | < 3 | < 3 | 260 | 4.5 | < 3 | 
C1=CCCC(CN2C[C@@H]3c4ccccc4[C@@H]4C[C@@]3(C2)c2ccccc24)CC1 (relative stereo) [Example 33, 2-(4-Cycloheptenylmethyl)-2,3,8,12b-tetrahydro-1H-3a,8-methanodibenzo[3,4:6,7]cyclohepta[1,2-c]pyrrole] |  |  |  |  |  |  |  |  |  | 3.3 | > 324 | 11 | 9 | 7 | 4 | > 324 | 19 | 37 | > 324
c1ccc2c(c1)[C@@H]1C[C@@]3(CN(CC4CCCCCCC4)C[C@H]23)c2ccccc21 (relative stereo) [Example 34, 2-Cyclooctylmethyl-2,3,8,12b-tetrahydro-1H-3a,8-methanodibenzo[3,4:6,7]cyclohepta[1,2-c]pyrrole] |  |  |  |  |  |  |  |  |  | 6 | > 324 | 23 | 40 | 21 | 4 | > 324 | 62 | 97 | > 324
c1ccc2c(c1)[C@@H]1C[C@@]3(CN(C[C@H]4C[C@H]5CC[C@@H]4C5)C[C@H]23)c2ccccc21 (relative stereo) [Example 36, 2-(2-Endo-bicyclo[2.2.1]heptylmethyl)-2,3,8,12b-tetrahydro-1H-3a,8-methanodibenzo[3,4:6,7]cyclohepta[1,2-c]pyrrole] |  |  |  |  |  |  |  |  |  | 9.8 | > 324 | 60 | 60 | 60 | 20 | > 324 | 60 | 100 | > 324
C1=C[C@@H]2C[C@H]1C[C@H]2CN1C[C@@H]2c3ccccc3[C@@H]3C[C@@]2(C1)c1ccccc13 (relative stereo) [Example 37, 2-(2-Exo-bicyclo[2.2.1]hept-5-enylmethyl)-2,3,8,12b-tetrahydro-1H-3a,8-methanodibenzo[3,4:6,7]cyclohepta[1,2-c]pyrrole] |  |  |  |  |  |  |  |  |  | 2.4 | 300 | 7 | 7 | 4 | ≤ 4 | 200 | 12 | 20 | > 324
